pIC50: −log10 of the molar value.
Legend:
[1] = molecular target: GST-tagged K-Ras mutant / His-tagged hSOS1 (Homo sapiens, UniProt P01116); assay: HTRF assay, K-Ras mutant / SOS1 interaction; assay type: binding; conditions: compound nos. 401-703; read-out: IC50 against mutant Kras
Summary of the method: (§1)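 HTRF read-out (ex 337, em 620 and 665 nm) of Ras–SOS1 equilibrium binding: Eu-anti-GST on GST-K-Ras, XL665-anti-6His on His-hSOS1. Incubation about 10 min or longer; IC50 fitted from emission ratio, compounds in duplicate at 10 μM down to 0.01 μM.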

[2] = molecular target: T1, wildtype Kras / hSOS1 (Homo sapiens, UniProt P01116); assay: HTRF assay, wildtype Kras / SOS1 interaction; assay type: binding; conditions: compound nos. 401-703; read-out: IC50 against wildtype Kras
T1 construct: made in house; host or cells: E. coli BL21 (DE3)
T1 sequence (P01116 1-188 isoform P01116-2): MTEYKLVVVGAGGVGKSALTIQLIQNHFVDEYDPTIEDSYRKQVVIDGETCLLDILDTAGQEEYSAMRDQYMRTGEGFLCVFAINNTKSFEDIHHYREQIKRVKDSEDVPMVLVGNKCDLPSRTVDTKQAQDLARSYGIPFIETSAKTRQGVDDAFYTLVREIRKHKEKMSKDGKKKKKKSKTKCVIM
Summary of the method: as §1

GST-tagged K-Ras mutant / His-tagged hSOS1, sequence (P01116 whole entry G12D, form open): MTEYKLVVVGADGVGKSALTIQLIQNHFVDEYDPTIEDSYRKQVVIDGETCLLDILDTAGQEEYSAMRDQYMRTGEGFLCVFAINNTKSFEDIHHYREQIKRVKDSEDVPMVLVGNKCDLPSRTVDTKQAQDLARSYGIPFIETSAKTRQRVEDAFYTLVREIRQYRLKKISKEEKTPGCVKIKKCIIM

Row | pIC50 [1] | pIC50 [2] | SMILES
1 | > 6.30 | < 6.30 | N#Cc1c(N)sc2c(F)ccc(-c3c(Cl)cc4c(N5CCC6CCC(C5)N6)nc(OC[C@@]56CCCN5C[C@H](F)C6)nc4c3F)c12 (stereo partly drawn) [Compound 504, 4-(4-(3,9-diazabicyclo-[4.2.1]nonan-3-yl)-6-chloro-8-fluoro-2-(((2R,7aS)-2-fluorotetrahydro-1H-pyrrol-izin-7a(5H)-yl)methoxy)-quin-azolin-7-yl)-2-amino-7-fluorobenzo[b]thiophene-3-carbonitrile]
2 | > 6.30 | < 6.30 | CN1CCC[C@H]1COc1nc(N2CCCCC(O)C2)c2cc(Cl)c(-c3cccc4sc(N)nc34)c(F)c2n1 (stereo partly drawn) [Compound 506, 1-(7-(2-aminobenzo[d]thia-zol-4-yl)-6-chloro-8-fluoro-2-(((S)-1-methylpyrrolidin-2-yl)methoxy)quinazolin-4-yl)azepan-3-ol]
3 | > 6.30 | < 6.30 | NC(=O)C1COCCN(c2nc(OC[C@@]34CCCN3C[C@H](F)C4)nc3c(F)c(-c4ccc(F)c5sc(N)nc45)c(Cl)cc23)C1 (stereo partly drawn) [Compound 507, 4-(7-(2-amino-7-fluoroben-zo[d]thiazol-4-yl)-6-chloro-8-fluoro-2-(((2R,7aS)-2-fluorotetrahydro-1H-pyrrol-izin-7a(5H)-yl)methoxy)-quinazolin-4-yl)-1,4-oxazepane-6-carboxamide]
4 | > 6.30 | < 6.30 | Nc1nc2c(-c3c(Cl)cc4c(N5CC6CCC(C5)NC6)nc(OC[C@@]56CCCN5C[C@H](F)C6)nc4c3F)ccc(F)c2s1 (stereo partly drawn) [Compound 511, 4-(4-(3,6-diazabicyclo-[3.2.2]nonan-3-yl)-6-chloro-8-fluoro-2-(((2R,7aS)-2-fluorotetrahydro-1H-pyrrol-izin-7a(5H)-yl)methoxy)-quinazolin-7-yl)-7-fluoro-benzo[d]thiazol-2-amine]
5 | > 6.30 | < 6.30 | Nc1nc2c(-c3c(Cl)cc4c(N5CC6CCCC(C5)NC6)nc(OC[C@@]56CCCN5C[C@H](F)C6)nc4c3F)ccc(F)c2s1 (stereo partly drawn) [Compound 512, 4-(4-(3,9-diazabicyclo-[3.3.2]decan-3-yl)-6-chloro-8-fluoro-2-(((2R,7aS)-2-fluorotetrahydro-1H-pyrrol-izin-7a(5H)-yl)methoxy)-quinazolin-7-yl)-7-fluoro-benzo[d]thiazol-2-amine]
6 | > 6.30 | < 6.30 | N#CC1COCCN(c2nc(OCC34CCCN3C[C@H](F)C4)nc3c(F)c(-c4ccc(F)c5sc(N)nc45)c(Cl)cc23)C1 (stereo partly drawn) [Compound 513, 4-(7-(2-amino-7-fluoroben-zo[d]thiazol-4-yl)-6-chloro-8-fluoro-2-(((2R)-2-fluoro-tetrahydro-1H-pyrrolizin-7a(5H)-yl)methoxy)quin-azolin-4-yl)-1,4-oxazepane-6-carbonitrile]
7 | > 6.30 | < 6.30 | Nc1nc2c(-c3c(Cl)cc4c(N5CC6CCC(CO)(C5)N6)nc(OC[C@@]56CCCN5C[C@H](F)C6)nc4c3F)ccc(F)c2s1 (stereo partly drawn) [Compound 518, (3-(7-(2-amino-7-fluoroben-zo-[d]thiazol-4-yl)-6-chloro-8-fluoro-2-(((2R,7aS)-2-fluorotetrahydro-1H-pyrrol-izin-7a(5H)-yl)methoxy)-quinazolin-4-yl)-3,8-diaza-bicyclo[3.2.1]octan-1-yl)-methanol]
8 | > 6.30 | < 6.30 | CN(C)C/C=C/C(=O)N1CC2(CCCN(c3nc(OC[C@@]45CCCN4C[C@H](F)C5)nc4c(F)c(-c5ccc(F)c6sc(N)c(C#N)c56)c(Cl)cc34)C2)C1 [Compound 522, 2-amino-4-(6-chloro-4-(2-((E)-4-(dimethylamino)but-2-enoyl)-2,6-diazaspiro[3.5]nonan-6-yl)-8-fluoro-2-(((2R,7aS)-2-fluorotetrahydro-1H-pyrrolizin-7a(5H)-yl)methoxy)quinazolin-7-yl)-7-fluorobenzo[b]thiophene-3-carbonitrile]
9 | > 6.30 | < 6.30 | CN(C)CC1(COc2nc(N3CC4CCC(C3)N4)c3cc(Cl)c(-c4ccc(F)c5sc(N)nc45)c(F)c3n2)CC1 [Compound 523, 4-(4-(3,8-diazabicyclo-[3.2.1]octan-3-yl)-6-chloro-2-((1-((dimethylamino)-methyl)cyclopropyl)meth-oxy)-8-fluoroquinazolin-7-yl)-7-fluorobenzo[d]thiazol-2-amine]

More lines, now with the values behind:

Row | SMILES | pIC50 [1] | pIC50 [2]
10 | Cc1ncc(COc2nc(N3CCCCCC3)c3cc(Cl)c(-c4cccc5sc(N)nc45)c(F)c3n2)cn1 [Compound 505, 4-(4-(azepan-1-yl)-6-chloro-8-fluoro-2-((2-methylpyr-imidin-5-yl)methoxy)quin-azolin-7-yl)benzo[d]thiazol-2-amine] | < 6.30 | < 6.30
11 | C#Cc1c(F)ccc2cc(O)cc(-c3ccc4c(N5CCCC6(CNC6)C5)nc(OC[C@@]56CCCN5C[C@H](F)C6)nc4c3F)c12 [Compound 508, 5-ethynyl-6-fluoro-4-(8-fluoro-2-(((2R,7aS)-2-fluorotetrahydro-1H-pyrrol-izin-7a(5H)-yl)methoxy)-4-(2,6-diazaspiro[3.5]nonan-6-yl)quinazolin-7-yl)naph-thalen-2-ol] | > 6.30 | < 6.30
12 | Nc1nc2c(C3CCc4c(nc(OC[C@@]56CCCN5C[C@H](F)C6)nc4N4CCNCC(F)(F)C4)C3)cccc2s1 (stereo partly drawn) [Compound 509, 4-(4-(6,6-difluoro-1,4-diazepan-1-yl)-2-(((2R,7aS)-2-fluorotetrahydro-1H-pyrrolizin-7a(5H)-yl)meth-oxy)-5,6,7,8-tetrahydro-quinazolin-7-yl)benzo[d]-thiazol-2-amine] | < 6.30 | < 6.30
13 | Cc1ccc(C#N)cc1-c1c(Cl)cc2c(N3CC4CCC(C3)N4)nc(OCC34CCCN3CCC4)nc2c1F [Compound 510, 3-(4-(3,8-diazabicyclo-[3.2.1]octan-3-yl)-6-chloro-8-fluoro-2-((tetrahydro-1H-pyrrolizin-7a(5H)-yl)meth-oxy)quinazolin-7-yl)-4-methylbenzonitrile] | < 6.30 | < 6.30
14 | CN(C)C1CN(c2nc(N3CC4CCC(C3)N4)c3cc(CCC#N)c(-c4ccc(F)c5sc(N)nc45)c(F)c3n2)C1 [Compound 516, 3-(7-(2-amino-7-fluoroben-zo[d]thiazol-4-yl)-4-(3,8-diazabicyclo[3.2.1]octan-3-yl)-2-(3-(dimethylamino)-azetidin-1-yl)-8-fluoroquin-azolin-6-yl)propanenitrile] | < 6.30 | < 6.30
15 | Oc1cc(N2CCc3nc(OCC45CCCN4CCC5)nc(N4C[C@H]5CC[C@@H](C4)N5)c3CC2)c2ccccc2c1 [Compound 521, 4-(4-((1R,5S)-3,8-diazabicyclo[3.2.1]octan-3-yl)-2-((tetrahydro-1H-pyrrolizin-7a(5H)-yl)methoxy)-5,6,8,9-tetrahydro-7H-pyrimido[4,5-d]azepin-7-yl)naphthalen-2-ol] | < 6.30 | < 6.30
16 | COC1CCCCN(c2nc(OC[C@@H]3CCCN3C)nc3c(F)c(-c4cccc5sc(N)nc45)c(Cl)cc23)C1 (stereo partly drawn) [Compound 524, 4-(6-chloro-8-fluoro-4-(3-methoxyazepan-1-yl)-2-(((S)-1-methylpyrrolidin-2-yl)methoxy)quinazolin-7-yl)benzo[d]thiazol-2-amine] | > 6.30 | < 6.30
17 | Nc1nc2ccccc2n1-c1ccc2c(N3CC4CCC(C3)N4)nc(OCC34CCCN3CCC4)nc2c1F [Compound 525, 1-(4-(3,8-diazabicyclo-[3.2.1]octan-3-yl)-8-fluoro-2-((tetrahydro-1H-pyrrol-izin-7a(5H)-yl)methoxy)-quin-azolin-7-yl)-1H-benzo-[d]imidazol-2-amine] | < 6.30 | < 6.30

— patent publication US20240254129A1, “HETEROCYCLIC COMPOUNDS AND USES THEREOF” (Kumquat Biosciences Inc., priority 2021, published 2024)
